This note sets out measurements from US11325938B2, “CD73 inhibitors” (ORIC Pharmaceuticals, Inc., priority 2018, dated 2022).

Sequence of CD73 (P21589 27-574): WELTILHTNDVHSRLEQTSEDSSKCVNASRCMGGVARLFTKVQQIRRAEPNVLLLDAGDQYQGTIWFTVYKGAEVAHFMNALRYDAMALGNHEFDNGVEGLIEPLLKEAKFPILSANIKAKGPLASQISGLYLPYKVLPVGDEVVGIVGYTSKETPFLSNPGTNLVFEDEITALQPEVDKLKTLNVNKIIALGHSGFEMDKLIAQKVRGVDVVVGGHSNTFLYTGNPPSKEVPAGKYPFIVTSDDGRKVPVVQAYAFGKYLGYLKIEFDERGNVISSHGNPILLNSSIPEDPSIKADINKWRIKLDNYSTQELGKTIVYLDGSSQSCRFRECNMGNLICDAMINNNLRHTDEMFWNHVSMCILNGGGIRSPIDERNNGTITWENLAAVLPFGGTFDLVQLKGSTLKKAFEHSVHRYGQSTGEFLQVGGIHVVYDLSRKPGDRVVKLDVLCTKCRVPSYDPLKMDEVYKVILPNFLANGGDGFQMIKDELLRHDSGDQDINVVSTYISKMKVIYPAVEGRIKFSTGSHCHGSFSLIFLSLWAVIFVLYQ

In this assay the target is CD73 (Homo sapiens (Human), UniProt P21589). In words: Biochemical assay: inhibition of CD73 activity (AMP hydrolysis, Malachite Green readout). As to conditions: CD73 0.3208 nM, AMP 15 μM, 25 mM Tris-HCl pH 7.4, RT, absorbance 620 nm. As to the method:
Example A1: Biochemical Assay
Assay Reaction Conditions
• Assay Volume: 70 μl • Reaction Volume: 50 μl • CD73: 0.3208 nM • AMP: 15 μM • Assay Buffer: 25 mM Tris-HCL, pH 7.4, 0.01% Brij-35, 0.01% BSA, 5 mM MgCl2 Assay Procedure:
Made dose titration of testing compounds in assay buffer, 10 points ½ log titrations in duplicates starting at 100 μM.
Added 25 μl of CD73 to each well for a final concentration of 320 pM.
Incubated at RT for 15 min.
Added 25 μl of AMP to each well for a final concentration of 15 μM.
Incubated at RT for 10 min.
Added 10 μl of Malachite Green Reagent A, incubate at RT for 10 min.
Added 10 of Malachite Green Reagent B, incubate at RT for 45 min.
Read the Absorbance on Envision plate reader using excitation filter: Cy5 […].
The ability of the compounds disclosed herein to inhibit CD73 activity was quantified and the respective IC50 values were determined. Table 2 provides the biochemical IC50 values of compounds disclosed herein.
Molecule `C[C@H](Nc1nc(Cl)nc2c1cnn2[C@@H]1O[C@H](COC(C)(CO)P(=O)(O)O)[C@@H](O)[C@H]1O)c1ccc(F)cc1` (mixture of isomers) [Example 183, rac-(2-(((2R,3S,4R,5R)-5-(6-chloro-4-(((S)-1-(4-fluorophenyl)ethyl)amino)-1H-pyrazolo[3,4-d]pyrimidin-1-yl)-3,4-dihydroxytetrahydrofuran-2-yl)methoxy)-1-hydroxypropane-2-yl)phosphonic acid] had an IC50 of at most 100 nM.

As for `C[C@@H]1CCC[C@@H]1Nc1nc(Cl)nc2c1cnn2[C@@H]1O[C@H](COC(CO)(Cc2nn[nH]n2)P(=O)(O)O)[C@@H](O)[C@H]1O` (mixture of isomers) [Example 209, rac-(2-(((2R,3S,4R,5R)-5-(6-chloro-4-(((1S,2R)-2-methylcyclopentyl)amino)-1H-pyrazolo[3,4-d]pyrimidin-1-yl)-3,4-dihydroxytetrahydrofuran-2-yl)methoxy)-1-hydroxy-3-(2H-tetrazol-5-yl)propan-2-yl)phosphonic acid], the IC50 is at most 100 nM.

In turn, `COCC(OC[C@@H]1O[C@H](n2ncc3c(NC4CCCC4)nc(Cl)nc32)[C@@H](O)[C@H]1O)(C(=O)O)P(=O)(O)O` (mixture of isomers) [Example 220, rac-(R)-2-(((2S,3R,4S,5S)-5-(6-chloro-4-(cyclopentylamino)-1H-pyrazolo[3,4-d]pyrimidin-1-yl)-3,4-dihydroxytetrahydrofuran-2-yl)methoxy)-3-methoxy-2-phosphonopropanoic acid] had a concentration for half-maximal inhibition (IC50) of 100 to 1000 nM.

`COCC(OC[C@H]1O[C@@H](n2ncc3c(NC4CCCC4)nc(Cl)nc32)[C@H](O)[C@@H]1O)(C(=O)O)P(=O)(O)O` (mixture of isomers) [Example 221, rac-(R)-2-(((2R,3S,4R,5R)-5-(6-chloro-4-(cyclopentylamino)-1H-pyrazolo[3,4-d]pyrimidin-1-yl)-3,4-dihydroxytetrahydrofuran-2-yl)methoxy)-3-methoxy-2-phosphonopropanoic acid] had a half-maximal inhibitory concentration (IC50) of at most 100 nM.

Regarding `O=P(O)(O)C(CO)(COC1CCC1)OC[C@H]1O[C@@H](n2ncc3c(NC4CCCC4)nc(Cl)nc32)[C@H](O)[C@@H]1O` (mixture of isomers) [Example 163, rac-(2-(((2R,3S,4R,5R)-5-(6-chloro-4-(cyclopentylamino)-1H-pyrazolo[3,4-d]pyrimidin-1-yl)-3,4-dihydroxytetrahydrofuran-2-yl)methoxy)-1-cyclobutoxy-3-hydroxypropan-2-yl)phosphonic acid], the IC50 is at most 100 nM.

Take `O=P(O)(O)C(CO)(CO)OC[C@H]1O[C@@H](n2ncc3c(N[C@@H]4CC[C@H]5CCC[C@H]54)nc(Cl)nc32)[C@H](O)[C@@H]1O` (racemic) [Example 164, rac-(2-(((2R,3S,4R,5R)-5-(6-chloro-4-(((1R,3aR,6aR)-octahydropentalen-1-yl)amino)-1H-pyrazolo[3,4-d]pyrimidin-1-yl)-3,4-dihydroxytetrahydrofuran-2-yl)methoxy)-1,3-dihydroxypropan-2-yl)phosphonic acid]: the half-inhibitory concentration (IC50) was at most 100 nM.

In the case of `C[C@@H](O)COc1nc(NC2CCCC2)c2cnn([C@@H]3O[C@H](CO[C@@](C)(CO)P(=O)(O)O)[C@@H](O)[C@H]3O)c2n1` (racemic) [Example 165, rac-((R)-2-(((2R,3S,4R,5R)-5-(4-(cyclopentylamino)-6-((R)-2-hydroxypropoxy)-1H-pyrazolo[3,4-d]pyrimidin-1-yl)-3,4-dihydroxytetrahydrofuran-2-yl)methoxy)-1-hydroxypropan-2-yl)phosphonic acid], the concentration for half-maximal inhibition (IC50) is at most 100 nM.

For the molecule `O=P(O)(O)C(COCCO)OC[C@H]1O[C@@H](n2ncc3c(NC4CCCC4)nc(Cl)nc32)[C@H](O)[C@@H]1O` (mixture of isomers) [Example 166, rac-(1-(((2R,3S,4R,5R)-5-(6-chloro-4-(cyclopentyalmino)-1H-pyrazolo[3,4-d]pyrimidin-1-yl)-3,4-dihydroxytetrahydrofuran-2-yl)methoxy)-2-(2-hydroxyethoxy)ethyl)phosphonic acid], the half-maximal inhibitory concentration (IC50) was at most 100 nM.

`O=P(O)(O)C(CO)(CC1COC1)OC[C@H]1O[C@@H](n2ncc3c(NC4CCCC4)nc(Cl)nc32)[C@H](O)[C@@H]1O` (mixture of isomers) [Example 167, rac-(2-(((2R,3S,4R,5R)-5-(6-chloro-4-(cyclopentylamino)-1H-pyrazolo[3,4-d]pyrimidin-1-yl)-3,4-dihydroxytetrahydrofuran-2-yl)methoxy)-1-hydroxy-3-(oxetan-3-yl)propan-2-yl)phosphonic acid] came in with an IC50 of at most 100 nM.

On to `O=P(O)(O)C(CO)(Cc1ncccn1)OC[C@H]1O[C@@H](n2ncc3c(NC4CCCC4)nc(Cl)nc32)[C@H](O)[C@@H]1O` (mixture of isomers) [Example 168, rac-(2-(((2R,3S,4R,5R)-5-(6-chloro-4-(cyclopentylamino)-1H-pyrazolo[3,4-d]pyrimidin-1-yl)-3,4-dihydroxytetrahydrofuran-2-yl)methoxy)-1-hydroxy-3-(pyrimidin-2-yl)propan-2-yl)phosphonic acid], for which the IC50 is at most 100 nM.

Turning to `CCOCC(CO)(OC[C@H]1O[C@@H](n2ncc3c(NC4CCCC4)nc(Cl)nc32)[C@H](O)[C@@H]1O)P(=O)(O)O` (mixture of isomers) [Example 169, rac-(2-(((2R,3S,4R,5R)-5-(6-chloro-4-(cyclopentylamino)-1H-pyrazolo[3,4-d]pyrimidin-1-yl)-3,4-dihydroxytetrahydrofuran-2-yl)methoxy)-1-ethoxy-3-hydroxypropan-2-yl)phosphonic acid], the half-inhibitory concentration (IC50) is at most 100 nM.

With `O=P(O)(O)[C@](CO)(COCC1CC1)OC[C@H]1O[C@@H](n2ncc3c(NC4CCCC4)nc(Cl)nc32)[C@H](O)[C@@H]1O` (racemic) [Example 170, rac-((R)-2-(((2R,3S,4R,5R)-5-(6-chloro-4-(cyclopentylamino)-1H-pyrazolo[3,4-d]pyrimidin-1-yl)-3,4-dihydroxytetrahydrofuran-2-yl)methoxy)-1-(cyclopropylmethoxy)-3-hydroxypropan-2-yl)phosphonic acid], the IC50 was at most 100 nM.

Consider `O=P(O)(O)[C@@](CO)(COCC1CC1)OC[C@H]1O[C@@H](n2ncc3c(NC4CCCC4)nc(Cl)nc32)[C@H](O)[C@@H]1O` (racemic) [Example 171, rac-((R)-2-(((2S,3R,4S,5S)-5-(6-chloro-4-(cyclopentylamino)-1H-pyrazolo[3,4-d]pyrimidin-1-yl)-3,4-dihydroxytetrahydrofuran-2-yl)methoxy)-1-(cyclopropylmethoxy)-3-hydroxypropan-2-yl)phosphonic acid], for which the concentration for half-maximal inhibition (IC50) is at most 100 nM.

The molecule `O=P(O)(O)C(CO)(COCCO)OC[C@H]1O[C@@H](n2ncc3c(NC4CCCC4)nc(Cl)nc32)[C@H](O)[C@@H]1O` (mixture of isomers) [Example 172, rac-(2-(((2R,3S,4R,5R)-5-(6-chloro-4-(cyclopentylamino)-1H-pyrazolo[3,4-d]pyrimidin-1-yl)-3,4-dihydroxytetrahydrofuran-2-yl)methoxy)-1-hydroxy-3-(2-hydroxyethoxy)propan-2-yl)phosphonic acid] showed an IC50 of at most 100 nM.

As to `C[C@](CO)(OC[C@H]1O[C@@H](n2ncc3c(N[C@@H]4CC[C@H]5CCC[C@H]54)nc(Cl)nc32)[C@H](O)[C@@H]1O)P(=O)(O)O` (racemic) [Example 173, rac-((R)-2-(((2S,3R,4S,5S)-5-(6-chloro-4-(((1S,3aS,6aS)-octahydropentalen-1-yl)amino)-1H-pyrazolo[3,4-d]pyrimidin-1-yl)-3,4-dihydroxytetrahydrofuran-2-yl)methoxy)-1-hydroxypropan-2-yl)phosphonic acid], the IC50 is at most 100 nM.

Turning to `COCC(COC)(OC[C@H]1O[C@@H](n2ncc3c(NC4CCC4)nc(Cl)nc32)[C@H](O)[C@@H]1O)P(=O)(O)O` (racemic) [Example 174, rac-(2-(((2R,3S,4R,5R)-5-(6-chloro-4-(cyclobutylamino)-1H-pyrazolo[3,4-d]pyrimidin-1-yl)-3,4-dihydroxytetrahydrofuran-2-yl)methoxy)-1,3-dimethoxypropan-2-yl)phosphonic acid], the IC50 was at most 100 nM.

Molecule `CC(C)(O)COc1nc(NC2CCCC2)c2cnn([C@@H]3O[C@H](COC(CO)(CO)P(=O)(O)O)[C@@H](O)[C@H]3O)c2n1` (racemic) [Example 175, rac-(2-(((2R,3S,4R,5R)-5-(4-(cyclopentylamino)-6-(2-hydroxy-2-methylpropoxy)-1H-pyrazolo[3,4-d]pyrimidin-1-yl)-3,4-dihydroxytetrahydrofuran-2-yl)methoxy)-1,3-dihydroxypropan-2-yl)phosphonic acid] registered an IC50 of at most 100 nM.

Consider `O=P(O)(O)C(CO)(CO)OC[C@H]1O[C@@H](n2ncc3c(N[C@@H]4CCc5cc(F)ccc54)nc(Cl)nc32)[C@H](O)[C@@H]1O` (racemic) [Example 176, rac-(2-(((2R,3S,4R,5R)-5-(6-chloro-4-(((R)-5-fluoro-2,3-dihydro-1H-inden-1-yl)amino)-1H-pyrazolo[3,4-d]pyrimidin-1-yl)-3,4-dihydroxytetrahydrofuran-2-yl)methoxy)-1,3-dihydroxypropan-2-yl)phosphonic acid], for which the IC50 is at most 100 nM.

The molecule `COCCOCC(COCCO)(OC[C@H]1O[C@@H](n2ncc3c(NC4CCCC4)nc(Cl)nc32)[C@H](O)[C@@H]1O)P(=O)(O)O` (mixture of isomers) [Example 177, rac-(2-(((2R,3S,4R,5R)-5-(6-chloro-4-(cyclopentylamino)-1H-pyrazolo[3,4-d]pyrimidin-1-yl)-3,4-dihydroxytetrahydrofuran-2-yl)methoxy)-1-(2-hydroxyethoxy)-3-(2-methoxyethoxy)propan-2-yl)phosphonic acid] gave a concentration for half-maximal inhibition (IC50) of at most 100 nM.

The IC50 is the point on the concentration scale where inhibition reaches its midpoint. Lower therefore signals greater potency.
